According to BigSolDB 2.1:

Conditions: in water

O=C([O-])c1cccc(S(=O)(=O)O)c1.[Na+]
Conditions | solubility (mole fraction)
278.15 K | 0.0276
283.15 K | 0.0296
288.15 K | 0.032
293.15 K | 0.0346
298.15 K | 0.0372
303.15 K | 0.0417
308.15 K | 0.0459
313.15 K | 0.0519
318.15 K | 0.0584
323.15 K | 0.0687
